Reference: patent publication US12678511B2, “Peptide and use thereof” (Kansai Medical University Educational Corgoration, priority 2019, dated 2026)
Entries after “also recorded” stand apart in the source; their conditions may differ. Peptide text beside a SMILES is read from it.

Key:
hMSC [1] = assay: Cell selectivity of FITC-labelled peptides: penetration into hMSC; assay type: cell-based, human; conditions: FITC-labelled peptide 4 μM, four hours, FIG. 2
Experimental: (§1) Among the peptides identified in Example 1, the four peptides MSCPP33, 48, 49 and 106, Poly-r9 as a positive control and MSCPP22 as a negative control were synthesized with an FITC (fluorescein isothiocyanate) (excitation wavelength: 495 nm, fluorescence wavelength: 520 nm) label, and then subjected to a hydrochloride treatment. These peptides were each obtained via contract synthesis by Sigma-Aldrich Japan (Genosis division). The MSCPP33 was dissolved in 20% DMSO. The MSCPP48 developed a precipitate following thawing of the frozen state, and was therefore subjected to a sonication treatment prior to use. The MSCPP49 and MSCPP106 were dissolved in water prior to use.
Subsequently, the penetration of each peptide into hMSC, normal human dermal fibroblasts (NHDF), and BxPC3 cells, which are an established cell line derived from human pancreatic adenocarcinoma, was confirmed. In the case of the hMSC, cells that had been inoculated into a 24-well plate at 4×10^4 cells/well and then cultured for 24 hours in an MSC medium were used. In the case of the NHDF and BxPC3 cells, cells that had been inoculated into a 24-well plate at 4×10^4 cells/well and then cultured for 24 hours in an RPMI 1640 medium containing 10% FBS were used. Mediums (RPMI 1640 medium containing 10% FBS) containing 4 μM of each of the peptides were then added to each of the cells and cultured for four hours. Following culturing, each of the cells was subjected to nuclear staining with Hoechst 33342 (excitation wavelength: 352 nm, fluorescence wavelength: 461 nm), and was then observed using a phase difference/fluorescence microscope. In FIG. 2, the images shown on the left side are FITC fluorescence images, and the images shown on the right side are merged images of the fluorescence image and the phase difference microscope image.

[2] = tested on: human mesenchymal stem cells (hMSC), line UE6E7T-3; assay: Penetration of MSCPP-EGFPHIS fusion peptides into hMSC (fluorescence microscopy); assay type: cell-based; conditions: MSCPP-EGFPHIS fusion peptide, cultured four hours, FIG. 1
Text: Using an independently prepared 9-amino acid residue peptide as a phenotype linked via puromycin to a protein-RNA chimeric random peptide library (in vitro virus library; IVVL) having an mRNA coding sequence as the corresponding genotype, a conventional IVV (in vitro virus) method was used with human mesenchymal stem cells (hMSC) as the absorption target cells to repeat a reaction cycle in a culture system, thus isolating 81 types of peptide having penetration into mesenchymal stem cells (mesenchymal stem cell-penetrating peptide; MSCPP).
Next, fusion peptides (having a His tag formed from six histidine residues at the C-terminus of the fusion peptide) of each of the 81 isolated MSCPP and EGFP (excitation wavelength: 488 nm, fluorescence wavelength: 509 nm) (MSCPP-EGFPHIS) were produced. The penetration properties into hMSC were evaluated for each of the MSCPP-EGFPHIS. Cells of the hMSC line UE6E7T-3 were used as the hMSC. An RPMI 1640 medium containing 10% FBS was used as the medium. The UE6E7T-3 cells were inoculated into a 96-well plate, medium containing each MSCPP-EGFPHIS (5 μL of fusion peptide solution and 50 μL of medium per well) was added, and the mixtures were cultured for four hours. Following culturing, the cells were inspected under a fluorescence microscope. In FIG. 1, “EGFPHIS” represents EGFP having a His tag formed from six histidine residues at the C-terminus, but not being fused with an MSCPP peptide. Further, “Poly-r9” (9-residue continuous D-arginine) is a non-selective membrane-permeable peptide that is currently widely used.

[3] = Degradation resistance in human plasma (MALDI-TOFMS); assay type: in vitro ADME; conditions: human plasma 50% by mass, 0 to 120 minutes, FIG. 4
Text: For the single peptide, tandem peptide, and tandem mutated peptide of MSCPP106 shown below in Table 2, the degradation resistance in human plasma was investigated. In Table 2, “tandem MSCPP106” describes a peptide composed of sequence containing two repeated amino acid sequences for MSCPP106 linked via a glycine residue spacer. Further, “tandem mut MSCPP106” describes a peptide composed of a sequence in which the cysteine residues in the amino acid sequence of tandem MSCPP106 have been methylated (mC).
Each of the above peptides was added to human plasma with a concentration of 50% by mass, the mixture was then sampled immediately after starting the degradation test (0 minutes), and then after 5 minutes, after 10 minutes, after 20 minutes, after 30 minutes, after 60 minutes and after 120 minutes, and each sample was analyzed by MALDI-TOFMS (Matrix Assisted Laser Desorption/Ionization-Time of Flight Mass Spectrometry). The ratio of the mass of the retained peptide that had not degraded at each of the sampling points from the start of the test, relative to the mass of the peptide (100% by mass) at the start of the test was calculated and graphed (see FIG. 4).

[4] = tested on: CAF of the cancer stroma, subcutaneous tumor; assay: Absorption into CAF of cancer stroma in scirrhous cancer model mouse; assay type: in vivo; conditions: [FAM]-labelled, 300 μg intravenous, 30 minutes after injection, FIG. 8C
Experimental: Using the same method as Example 7, a scirrhous cancer model mouse was obtained. Subsequently, the obtained scirrhous cancer model mouse was injected intravenously with [FAM]-tandem MSCPP106 (300 μg). Subsequently, the pharmacokinetics of the peptide 30 minutes after the intravenous injection were analyzed by tissue analysis of the freshly dissected specimen of the peptide-administered mouse.
FIG. 8C is a series of phase difference microscope images and fluorescent images of the subcutaneous tumor. The upper two rows are images at a magnification of 20×, whereas the lower two rows are images at a magnification of 40×. Further, “Merge” represents merged images of each phase difference microscope image and each fluorescent image.

hMSC [5] = assay: Intracellular localization of [FAM]-tandem MSCPP106 in hMSC; assay type: cell-based, human; conditions: [FAM]-labelled, 4 μM, fluorescence maintained in lysosomes, FIG. 6
Experimental: Next, the intracellular localization of [FAM]-tandem MSCPP106 was investigated. Specifically, hMSC were inoculated into a 24-well plate to achieve 4×10^4 cells/well, and four hours after the inoculation, the medium was replaced with an RPMI medium containing 10% FBS, and culturing was conducted for 60 hours. Following culturing, a medium (RPMI 1640 medium containing 10% FBS) containing 4 μM of [FAM]-tandem MSCPP106 was added to the hMSC and cultured for 24 hours. Following culturing, nuclear staining was conducted with Hoechst 33342 (excitation wavelength: 352 nm, fluorescence wavelength: 461 nm), lysosomes were also stained using LysoTracker (a registered trademark) RED DND-99 (a lysosome content marker, excitation wavelength: 555 nm, fluorescence wavelength: 584 nm), and the cultures were then observed using a phase difference/fluorescence microscope (magnification: 60×). In FIG. 6, “Merge” indicates a merged image of the FAM fluorescence image and the LysoTracker (a registered trademark) RED DND-99 fluorescence image.

[6] = tested on: cancer stroma, subcutaneous tumor (BxPC3 cells and DsRed2 hMSC); assay: Absorption of [FAM]-tandem and [FAM]-tandem mut MSCPP106 into cancer stroma in scirrhous pancreatic cancer model mice; assay type: in vivo, mouse; conditions: [FAM]-labelled, 300 μg intravenous, 60 minutes after injection
Text: Next, in order to investigate the functional importance of the cysteine within the peptide sequence (positioned second from the N-terminus), a comparison was made of the absorption into cancer stroma of [FAM]-tandem MSCPP106 and [FAM]-tandem mut MSCPP106 (having a sequence in which the N-terminus is labeled with FAM, and having a mutation in which the side-chain —SH group of the cysteine second from the N-terminus has been methylated). With the exception of using cloned hMSC cells that constantly expressed DsRed2, the same method as Example 7 was used to obtain scirrhous pancreatic cancer model mice. Subsequently, the obtained scirrhous pancreatic cancer model mice were injected intravenously with [FAM]-tandem MSCPP106 or [FAM]-tandem mut MSCPP106 (300 μg in each case). In each case, the pharmacokinetics of the peptide 60 minutes after the intravenous injection were then analyzed by tissue analysis of the freshly dissected specimen of the peptide-administered mouse.
FIG. 9B is a series of fluorescent images of subcutaneous tumors in mice administered with [FAM]-tandem MSCPP106 or [FAM]-tandem mut MSCPP106 (magnification: 4×).
FIG. 9C is a series of fluorescent images of a subcutaneous transplanted tumor in a mouse administered with tandem MSCPP106 (magnification: 4×, 20× and 40×). […]

BxPC3 cells = assay: Cell selectivity of FITC-labelled peptides: penetration into BxPC3 cells; assay type: cell-based, human; conditions: FITC-labelled peptide 4 μM, four hours, FIG. 2
Experimental: as §1
(§2) Subsequently, the penetration of each peptide into hMSC, normal human dermal fibroblasts (NHDF), and BxPC3 cells, which are an established cell line derived from human pancreatic adenocarcinoma, was confirmed. […] Following culturing, each of the cells was subjected to nuclear staining with Hoechst 33342 (excitation wavelength: 352 nm, fluorescence wavelength: 461 nm), and was then observed using a phase difference/fluorescence microscope. In FIG. 2, the images shown on the left side are FITC fluorescence images, and the images shown on the right side are merged images of the fluorescence image and the phase difference microscope image.

[7] = tested on: normal human dermal fibroblasts (NHDF); assay: Cell selectivity of FITC-labelled peptides: penetration into NHDF; assay type: cell-based; conditions: FITC-labelled peptide 4 μM, four hours, FIG. 2
Experimental: as §1, §2

| Molecule | absorption into hMSC (hMSC [1]) | penetration into human bone marrow-derived mesenchymal stem cells (hMSC) [2] | degradation resistance in human plasma [3] | further results |
| --- | --- | --- | --- | --- |
| WPPLQRWRN [MSCPP33] | high absorption and fixed selective absorption | exhibited penetration | – | – |
| CSC[C@H](NC(=O)[C@H](CCCCN)NC(=O)CNC(=O)[C@H](CC(C)C)NC(=O)[C@H](Cc1c[nH]cn1)NC(=O)[C@H](CCCNC(=N)N)NC(=O)[C@H](Cc1ccccc1)NC(=O)[C@H](CC(C)C)NC(=O)[C@H](CCC(=O)O)NC(=O)[C@H](C)NC(=O)[C@H](CSC)NC(=O)[C@@H](N)CCCCN)C(=O)N[C@@H](C)C(=O)N[C@@H](CCC(=O)O)C(=O)N[C@@H](CC(C)C)C(=O)N[C@@H](Cc1ccccc1)C(=O)N[C@@H](CCCNC(=N)N)C(=O)N[C@@H](Cc1c[nH]cn1)C(=O)N[C@@H](CC(C)C)C(=O)O [tandem mut MSCPP106, KmCAELFRHL-G-KmCAELFRHL] (H-KC(Me)AELFRHLGKC(Me)AELFRHL-OH; N-terminus and C-terminus assumed) | – | – | excellent degradation resistance compared with the single MSCPP106 | – |
| CC(C)C[C@H](NC(=O)[C@H](Cc1c[nH]cn1)NC(=O)[C@H](CCCNC(=N)N)NC(=O)[C@H](Cc1ccccc1)NC(=O)[C@H](CC(C)C)NC(=O)[C@H](CCC(=O)O)NC(=O)[C@H](C)NC(=O)[C@H](CS)NC(=O)[C@H](CCCCN)NC(=O)CNC(=O)[C@H](CC(C)C)NC(=O)[C@H](Cc1c[nH]cn1)NC(=O)[C@H](CCCNC(=N)N)NC(=O)[C@H](Cc1ccccc1)NC(=O)[C@H](CC(C)C)NC(=O)[C@H](CCC(=O)O)NC(=O)[C@H](C)NC(=O)[C@H](CS)NC(=O)[C@@H](N)CCCCN)C(=O)O [tandem MSCPP106, KCAELFRHL-G-KCAELFRHL] (H-KCAELFRHLGKCAELFRHL-OH; N-terminus and C-terminus assumed) | – | – | excellent degradation resistance compared with the single MSCPP106 | absorption into the CAF of the cancer stroma [4]: selective absorption; resistance to intracellular digestion (degradation) (hMSC [5]): at least 24 hours; absorption into cancer stroma, comparison of peptides ([6]; FIG. 9B): even better absorption into cancer stroma than tandem mut MSCPP106; absorption into hMSC-derived hCAF and mouse MSC-derived CAF ([6]; FIG. 9C): excellent absorption into both forms of CAF |
| RRWMQWPWH [MSCPP49] | high absorption and fixed selective absorption | exhibited penetration | – | – |
| KCAELFRHL [MSCPP106] | high absorption and fixed selective absorption; also recorded: efficient absorption | exhibited penetration | – | absorption into the pancreatic cancer cells BxPC3 (BxPC3 cells): low absorption; fluorescence observed in hMSC [2]: Particularly strong fluorescence; absorption into NHDF [7]: lower absorption into NHDF compared with the absorption into hMSC |
| RTHPVWSRT [MSCPP48] | high absorption and fixed selective absorption | exhibited penetration | – | – |
